Test results from patent US12064426B2, “Selective inhibitors of ROCK1 and ROCK2 protein kinases and uses thereof” (GENOSCO Inc., priority 2021, dated 2024).

Assays:
[1] = target: T1, Recombinant ROCK2 (amino acids 5-554) (Homo sapiens, UniProt O75116); assay: ROCK inhibition assay, LANCE Ultra TR-FRET kinase assay (ROCK2); format: biochemical; details: 4 μM ATP, 50 nM ULight-CREBtide substrate
T1 construct: ROCK2 (amino acids 5-554); by word order, ROCK2 from SignalChem
Outline: (§1)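 LANCE Ultra TR-FRET kinase assay with recombinant ROCK1 (aa 1-477) or ROCK2 (aa 5-554), 50 nM ULight-CREBtide and ATP at 1 μM (ROCK1) or 4 μM (ROCK2) in HEPES pH 7.5 with MgCl2, 1 h at room temperature. EDTA stop with Eu anti-phospho-CREB Ser133 antibody; 665/615 nm read gives IC50.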

[2] = target: T2, Recombinant ROCK1 (amino acids 1-477) (Homo sapiens, UniProt Q13464); assay: ROCK inhibition assay, LANCE Ultra TR-FRET kinase assay (ROCK1); format: biochemical; details: 1 μM ATP, 50 nM ULight-CREBtide substrate
T2 construct: Recombinant ROCK1 (amino acids 1-477); by word order, ROCK1 from Carna Biosciences
Outline: as §1

T1 sequence (O75116 5-554): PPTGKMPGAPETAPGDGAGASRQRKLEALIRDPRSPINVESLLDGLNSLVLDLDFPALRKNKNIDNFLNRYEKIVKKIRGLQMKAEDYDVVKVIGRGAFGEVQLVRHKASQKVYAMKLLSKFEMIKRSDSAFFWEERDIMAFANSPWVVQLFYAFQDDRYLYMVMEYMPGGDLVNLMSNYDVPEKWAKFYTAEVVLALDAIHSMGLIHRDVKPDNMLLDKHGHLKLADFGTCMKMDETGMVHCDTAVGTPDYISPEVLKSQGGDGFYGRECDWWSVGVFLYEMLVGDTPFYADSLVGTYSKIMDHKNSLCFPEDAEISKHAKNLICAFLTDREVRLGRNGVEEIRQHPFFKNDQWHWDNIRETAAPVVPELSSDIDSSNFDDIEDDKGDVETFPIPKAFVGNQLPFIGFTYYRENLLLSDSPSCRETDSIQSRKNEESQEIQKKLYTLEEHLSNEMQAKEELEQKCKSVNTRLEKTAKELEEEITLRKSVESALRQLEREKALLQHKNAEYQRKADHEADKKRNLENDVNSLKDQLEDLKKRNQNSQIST
T2 sequence (Q13464 1-477): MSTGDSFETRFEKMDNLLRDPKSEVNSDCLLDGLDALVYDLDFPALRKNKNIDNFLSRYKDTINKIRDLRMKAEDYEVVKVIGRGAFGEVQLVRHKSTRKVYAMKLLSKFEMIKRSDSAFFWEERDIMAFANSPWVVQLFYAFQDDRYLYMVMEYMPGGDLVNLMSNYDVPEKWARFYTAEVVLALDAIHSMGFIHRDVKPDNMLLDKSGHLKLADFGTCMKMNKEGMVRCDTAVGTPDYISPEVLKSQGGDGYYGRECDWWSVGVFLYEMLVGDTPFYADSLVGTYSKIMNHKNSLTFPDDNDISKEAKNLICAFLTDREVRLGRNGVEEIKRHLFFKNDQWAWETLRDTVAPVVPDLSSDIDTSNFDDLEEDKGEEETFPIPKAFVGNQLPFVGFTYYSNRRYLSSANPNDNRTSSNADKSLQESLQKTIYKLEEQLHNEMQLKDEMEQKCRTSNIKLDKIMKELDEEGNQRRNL

IC50 [1]	IC50 [2]	Structure (SMILES)
10 to 100 nM	11 to 100 nM	COc1cccc(C(CO)n2cnc3cc(-c4cn[nH]c4C)ccc3c2=O)c1 (stereo not shown) [Compound 489]
10 to 100 nM	11 to 100 nM	COc1cccc(C(CO)n2cnc3cc(-c4cn[nH]c4C(F)(F)F)ccc3c2=O)c1 (stereo not shown) [Compound 490]
10 to 100 nM	11 to 100 nM	COc1cccc(C(CO)n2cnc3cc(-c4cn[nH]c4Cl)ccc3c2=O)c1 (stereo not shown) [Compound 491]
10 to 100 nM	11 to 100 nM	NCC(c1cccc(Cl)c1)n1cnc2cc(-c3ccnc(F)c3)ccc2c1=O (stereo not shown) [Compound 492, 3-(2-amino-1-(3-chlorophenyl)ethyl)-7-(2-fluoropyridin-4-yl)quinazolin-4(3H)-one]
< 10 nM	11 to 100 nM	NCC(c1cccc(Cl)c1)n1cnc2cc(-c3ccnc(N)c3)ccc2c1=O (stereo not shown) [Compound 493]
< 10 nM	< 10 nM	Cc1[nH]ncc1-c1ccc2c(=O)n(C(CN)c3cccc(Cl)c3)cnc2c1 (stereo not shown) [Compound 494]
< 10 nM	< 10 nM	NCC(c1cccc(Cl)c1)n1cnc2cc(-c3cn[nH]c3Cl)ccc2c1=O (stereo not shown) [Compound 496]
< 10 nM	11 to 100 nM	Cc1nocc1-c1ccc2c(=O)n(C(CN)c3cccc(Cl)c3)cnc2c1 (stereo not shown) [Compound 497]
< 10 nM	< 10 nM	COc1cccc(C(CN)n2cnc3cc(-c4cn[nH]c4C)ccc3c2=O)c1 (stereo not shown) [Compound 498]
< 10 nM	< 10 nM	COc1cccc(C(CN)n2cnc3cc(-c4cn[nH]c4C(F)(F)F)ccc3c2=O)c1 (stereo not shown) [Compound 499]
< 10 nM	< 10 nM	COc1cccc(C(CN)n2cnc3cc(-c4cn[nH]c4Cl)ccc3c2=O)c1 (stereo not shown) [Compound 500]
100 to 500 nM	> 501 nM	N#Cc1cccc(C(CN)n2cnc3cc(-c4ccnc(N)c4)ccc3c2=O)c1 (stereo not shown) [Compound 501]
100 to 500 nM	> 501 nM	N#Cc1cccc(C(CN)n2cnc3cc(-c4ccnc(F)c4)ccc3c2=O)c1 (stereo not shown) [Compound 502, 3-(2-amino-1-(7-(2-fluoropyridin-4-yl)-4-oxoquinazolin-3(4H)-yl)ethyl)benzonitrile]
100 to 500 nM	> 501 nM	N#Cc1cccc(C(CN)n2cnc3cc(-c4cn[nH]c4C(F)(F)F)ccc3c2=O)c1 (stereo not shown) [Compound 503]
100 to 500 nM	> 501 nM	N#Cc1cccc(C(CN)n2cnc3cc(-c4cn[nH]c4Cl)ccc3c2=O)c1 (stereo not shown) [Compound 504]
100 to 500 nM	> 501 nM	NCC(c1cccc(C(N)=O)c1)n1cnc2cc(-c3ccnc(N)c3)ccc2c1=O (stereo not shown) [Compound 506]
100 to 500 nM	> 501 nM	NCC(c1cccc(C(N)=O)c1)n1cnc2cc(-c3cn[nH]c3C(F)(F)F)ccc2c1=O (stereo not shown) [Compound 507]
100 to 500 nM	> 501 nM	NCC(c1cccc(C(N)=O)c1)n1cnc2cc(-c3cn[nH]c3Cl)ccc2c1=O (stereo not shown) [Compound 508]
< 10 nM	11 to 100 nM	CNC(=O)c1cccc([C@@H](C)n2cnc3cc(-c4cn[nH]c4Br)ccc3c2=O)c1 [Compound 509, (R)-3-(1-(7-(5-bromo-1H-pyrazol-4-yl)-4-oxoquinazolin-3(4H)-yl)ethyl)-N-methylbenzamide]

IC50 [1]	IC50 [2]	Structure (SMILES)
< 10 nM	11 to 100 nM	[2H]C([2H])([2H])NC(=O)c1cccc(Cn2cnc3cc(-c4cn[nH]c4Br)ccc3c2=O)c1 [Compound 511]
< 10 nM	11 to 100 nM	CNC(=O)c1cccc(Cn2ccc3cc(-c4cn[nH]c4Br)ccc3c2=O)c1 [Compound 512]
< 10 nM	11 to 100 nM	[2H]C([2H])([2H])NC(=O)c1cccc(Cn2ccc3cc(-c4cn[nH]c4Br)ccc3c2=O)c1 [Compound 513]
< 10 nM	11 to 100 nM	C[C@H](c1cccc(C(=O)NC2COC2)c1)n1cnc2cc(-c3cn[nH]c3Br)ccc2c1=O [Compound 514]
< 10 nM	11 to 100 nM	C[C@H](c1cccc(C(=O)NC2CC2)c1)n1cnc2cc(-c3cn[nH]c3Br)ccc2c1=O [Compound 515]
< 10 nM	< 10 nM	C[C@H](c1cccc(C(=O)NCc2ccc(F)nc2)c1)n1cnc2cc(-c3cn[nH]c3Br)ccc2c1=O [Compound 516]
< 10 nM	11 to 100 nM	C[C@H](c1cccc(C(=O)Nc2ccc(F)cc2)c1)n1cnc2cc(-c3cn[nH]c3Br)ccc2c1=O [Compound 517]
< 10 nM	11 to 100 nM	CNC(=O)c1cccc([C@@H](C)n2cnc3cc(-c4cn[nH]c4N)ccc3c2=O)c1 [Compound 518]
< 10 nM	11 to 100 nM	[2H]C([2H])([2H])NC(=O)c1cccc([C@@H](C)n2cnc3cc(-c4cn[nH]c4N)ccc3c2=O)c1 [Compound 519]
< 10 nM	11 to 100 nM	C[C@H](c1cccc(C(=O)NC2COC2)c1)n1cnc2cc(-c3cn[nH]c3N)ccc2c1=O [Compound 520]
< 10 nM	11 to 100 nM	C[C@H](c1cccc(C(=O)NC2CC2)c1)n1cnc2cc(-c3cn[nH]c3N)ccc2c1=O [Compound 521]
< 10 nM	< 10 nM	C[C@H](c1cccc(C(=O)NCc2ccc(F)nc2)c1)n1cnc2cc(-c3cn[nH]c3N)ccc2c1=O [Compound 522]
100 to 500 nM	> 501 nM	Cc1[nH]ncc1-c1ccc2c(c1)NCN([C@H](CO)c1cccc(Cl)c1)C2=O [Compound 523, (S)-3-(1-(3-chlorophenyl)-2-hydroxyethyl)-7-(5-methyl-1H-pyrazol-4-yl)-2,3-dihydroquinazolin-4(1H)-one]
100 to 500 nM	> 501 nM	O=C1c2ccc(-c3cn[nH]c3C(F)(F)F)cc2NCN1[C@H](CO)c1cccc(Cl)c1 [Compound 524]
100 to 500 nM	> 501 nM	O=C1c2ccc(-c3cn[nH]c3Cl)cc2NCN1[C@H](CO)c1cccc(Cl)c1 [Compound 525]
> 500 nM	> 501 nM	Cn1nccc1-c1ccc2c(c1)NCN([C@H](CO)c1cccc(Cl)c1)C2=O [Compound 526]
100 to 500 nM	> 501 nM	COc1cccc([C@@H](CO)N2CNc3cc(-c4ccncc4)ccc3C2=O)c1 [Compound 527]
100 to 500 nM	> 501 nM	COc1cccc([C@@H](CO)N2CNc3cc(-c4cn[nH]c4C(F)(F)F)ccc3C2=O)c1 [Compound 528]
> 500 nM	> 501 nM	COc1cccc([C@@H](CO)N2CNc3cc(-c4cnoc4C)ccc3C2=O)c1 [Compound 529]

IC50 [1]	IC50 [2]	Structure (SMILES)
10 to 100 nM	> 501 nM	COc1cccc([C@@H](CO)N2CNc3cc(-c4cn[nH]c4Cl)ccc3C2=O)c1 [Compound 530]
100 to 500 nM	> 501 nM	COc1cccc([C@@H](CO)N2CNc3cc(-c4ccnn4C)ccc3C2=O)c1 [Compound 531]
< 10 nM	< 10 nM	CNC(=O)c1cccc(Cn2cc(C(C)O)c3cc(-c4c[nH]nc4C(F)(F)F)ccc3c2=O)c1 (stereo not shown) [Compound 532, 3-((4-(1-hydroxyethyl)-1-oxo-6-(3-(trifluoromethyl)-1H-pyrazol-4-yl)isoquinolin-2(1H)-yl)methyl)-N-methylbenzamide]
10 to 100 nM	101 to 500 nM	CC(O)c1cn(Cc2cccc(C(=O)NC3CC3)c2)c(=O)c2ccc(-c3c[nH]nc3C(F)(F)F)cc12 (stereo not shown) [Compound 533]
< 10 nM	11 to 100 nM	CC(O)c1cn(Cc2cccc(C(=O)NC3COC3)c2)c(=O)c2ccc(-c3c[nH]nc3C(F)(F)F)cc12 (stereo not shown) [Compound 534]
< 10 nM	< 10 nM	CNC(=O)c1cccc(Cn2cc(C(C)O)c3cc(-c4c[nH]nc4C(F)F)ccc3c2=O)c1 (stereo not shown) [Compound 535]
< 10 nM	< 10 nM	CC(O)c1cn(Cc2cccc(C(=O)NC3CCOCC3)c2)c(=O)c2ccc(-c3c[nH]nc3C(F)F)cc12 (stereo not shown) [Compound 536]
< 10 nM	11 to 100 nM	CNC(=O)c1cccc(Cn2cc(C(C)O)c3cc(-c4conc4C)ccc3c2=O)c1 (stereo not shown) [Compound 537]
< 10 nM	< 10 nM	Cc1nocc1-c1ccc2c(=O)n(Cc3cccc(C(=O)NCc4ccc(F)nc4)c3)cc(C(C)O)c2c1 (stereo not shown) [Compound 538]
< 10 nM	11 to 100 nM	Cc1nocc1-c1ccc2c(=O)n(Cc3cccc(C(=O)NCc4ccccc4)c3)cc(C(C)O)c2c1 (stereo not shown) [Compound 539]
< 10 nM	11 to 100 nM	CNC(=O)c1cccc(Cn2cc(C(C)O)c3cc(-c4ccnn4C)ccc3c2=O)c1 (stereo not shown) [Compound 540]
< 10 nM	11 to 100 nM	CNC(=O)c1cccc(Cn2cc(C(C)O)c3cc(-c4c[nH]nc4Cl)ccc3c2=O)c1 (stereo not shown) [Compound 541]
< 10 nM	< 10 nM	CC(O)c1cn(Cc2cccc(C(=O)NCCN(C)C)c2)c(=O)c2ccc(-c3c[nH]nc3Cl)cc12 (stereo not shown) [Compound 542]
< 10 nM	< 10 nM	CC(O)c1cn(Cc2cccc(C(=O)NCCc3ccccn3)c2)c(=O)c2ccc(-c3c[nH]nc3Cl)cc12 (stereo not shown) [Compound 543]
< 10 nM	11 to 100 nM	CNC(=O)c1cccc(Cn2cc(C(C)O)c3cc(-c4c[nH]nc4N)ccc3c2=O)c1 (stereo not shown) [Compound 544]
< 10 nM	11 to 100 nM	CNC(=O)c1cccc(Cn2cc(C(C)O)c3cc(-c4ccnc(N)c4)ccc3c2=O)c1 (stereo not shown) [Compound 545]
< 10 nM	11 to 100 nM	CNC(=O)c1cccc(Cn2cc(CCO)c3cc(-c4cn[nH]c4C(F)(F)F)ccc3c2=O)c1 [Compound 546, 3-((4-(2-hydroxyethyl)-1-oxo-6-(5-(trifluoromethyl)-1H-pyrazol-4-yl)isoquinolin-2(1H)-yl)methyl)-N-methylbenzamide]
< 10 nM	11 to 100 nM	CNC(=O)c1cccc(Cn2cc(CC(C)O)c3cc(-c4cn[nH]c4C(F)(F)F)ccc3c2=O)c1 (stereo not shown) [Compound 547]
